Results published in ChEMBL document CHEMBL1121838, “Synthesis and anticholinergic properties of the enantiomers of 4-(isopropylamino)-2-(2-pyridyl)-2-phenylbutyramide, the mono-N-dealkylated metabolite of disopyramide” (J Med Chem, 1981).

Experiments:
[1] = species on record: Cavia porcellus; test: Mean dissociation constant was measured for acetylcholine-induced contractions; assay type: functional
[2] = species on record: Cavia porcellus; test: Inhibitory concentration of guinea pig ileum longitudinal muscle strips to antagonize electrically stimulated contractions; assay type: functional; settings: Muscle tissue
[3] = species on record: Cavia porcellus; test: Inhibitory concentration of guinea pig ileum longitudinal muscle produced in response to electrically simulated release of acetylcholine; assay type: functional, Muscle tissue

| SMILES | Kd [1] [µM] | IC50 [2] [µM] | IC50 [3] [µM] | IC50 ([3]; Cavia porcellus, Muscle tissue) [µM] |
| --- | --- | --- | --- | --- |
| CC(C)NCCC(C(N)=O)(c1ccccc1)c1ccccn1 (configuration not stated) [N-MONODEISOPROPYL DISOPYRAMIDE] | 3.8 | 3.2 |  |  |
| CC(C)N(CCC(C(N)=O)(c1ccccc1)c1ccccn1)C(C)C (configuration not stated) [DISOPYRAMIDE] | 2.2 | 1.5 |  |  |
| CC(C)NCC[C@@](C(N)=O)(c1ccccc1)c1ccccn1 (stereo in doubt; 2 (2S)) |  |  | 5 |  |
| CC(C)NCC[C@@](C(N)=O)(c1ccccc1)c1ccccn1 (stereo in doubt; 2 (2R)) |  |  | 14 |  |
| CC(C)N(CC[C@](C(N)=O)(c1ccccc1)c1ccccn1)C(C)C [(S)-DISOPYRAMIDE] |  |  |  | 4.5 |
